Patent US20170158671A1, “PYRIMIDINE COMPOSITIONS, ULTRA PURE COMPOSITIONS AND SALTS THEREOF, METHODS OF MAKING THE SAME, AND METHODS OF USING THE SAME FOR TREATING HISTAMINE H4 RECEPTOR (H4) MEDIATED DISEASES AND CONDITIONS” (Ziarco Pharma Ltd., priority 2015, published 2017)

Legend:
[1] = Salt screen: HT-XRPD after accelerated aging conditions; assay type: physicochemical; settings: solid form by HT-XRPD after 40° C., 75% RH for two days, code+number = crystalline salt polymorph, 0 = crystalline counter ion itself
Experimental: XRPD patterns were obtained using the Crystallics T2 high-throughput XRPD set-up. The plates were mounted on a Bruker General Area Detector Diffraction System (GADDS) equipped with a VÅNTEC-500 gas area detector corrected for intensity and geometric variations. The calibration of the measurement accuracy (peaks position) was performed using NIST SRM1976 standard (Corundum).
Data collection was carried out at room temperature using monochromatic CuKα radiation in the 2θ region between 1.5° and 41.5°, which is the most distinctive part of the XRPD pattern. The diffraction pattern of each well was collected in two 2θ ranges (1.5°≦2θ≦21.5° for the first frame, and 19.5°≦2θ≦41.5° for the second) with an exposure time of 90 s for each frame. No background subtraction or curve smoothing was applied to the XRPD patterns.
Approximately 175 mg of N^4-(cyclopropylmethyl)-6-[(3R)-3-(methylamino)pyrrolidin-1-yl]pyrimidine-2,4-diamine in 1-Butanol and Dichloromethane were combined with a slight molar excess of either solid or liquid counter ion. Samples were incubated at RT. After 5 days the solids were collected, dried under vacuum and analyzed by HT-XRPD (XRPD 1).
Subsequently, the solids were exposed to accelerated aging conditions (40° C., 75% RH) for two days and re-analyzed by HT-XRPD (XRPD 2). Crystalline salts (polymorphs) are indicated with the abbreviated counter ion code and a number (1, 2, etc.). The number zero (0) indicates the crystalline counter ion itself.

[2] = Dynamic vapor sorption (DVS) analysis; assay type: physicochemical; settings: 25° C.
Experimental: Moisture sorption isotherms were collected on a DVS-1 system from Surface Measurement Systems (London, UK). Typical sample size is between 5 and 10 mg of solid material. The relative humidity was cycled between 40% to 0% (desorption), up to 95% (sorption), back to 0% RH (desorption) and up to 95% RH (sorption) in steps of 10% at a constant temperature of 25° C. with an initial stabilizing step at 40% RH for 6 hours.
(FIG. 9) The relative humidity (RH) was cycled between 40% to 0% (desorption), up to 95% (sorption) in steps of 10%. During the desorption, the dehydration step occurs when the RH goes below 10% RH. Water uptake is observed in between 0-20% RH (1.9% mass uptake) and 20-30% (total mass uptake 6.9%).

[3] = Salt screen: HT-XRPD after accelerated aging conditions; assay type: physicochemical; settings: 14 counter ions tested; only hydrochloric acid gave such a salt
[4] = Phase 1 trials, single and multiple ascending doses; assay type: in vivo, human
Experimental: In phase 1 trials, 62 subjects were treated with ZPL-389.

mild asthmatics = settings: 36 mg in two single doses given 12 hours apart, oral; cited from earlier work
[5] = system: adult subjects with moderate to severe atopic dermatitis; experiment: Phase 2a study in moderate to severe atopic dermatitis; assay type: in vivo, human
Experimental: Following the phase 1 trials, a phase 2a trial was conducted to evaluate the efficacy of 8 weeks of treatment with 30 mg ZPL-389 administered once daily in adult subject with moderate to severe atopic dermatitis. The study was also designed to assess the safety and tolerability of ZPL-389 in adult subjects with moderate to severe atopic dermatitis.
This study was a randomized, double blind, placebo controlled, parallel group study of subjects having a pruritus Numerical Rating Scale (NRS) of ≧5 (0-10 scale), an Investigator's Global Assessment (IGA) ≧3 (0-3 scale), and moderate-severe AD Eczema Area and Severity Index (EASI) ≧12 and ≦48 (0-72 scale). In addition, subjective patient reported outcome instruments include: Ziarco Itch Diary (Electronic) Pruritus; 5D Pruritus Scale; Dermatology Life Quality Index (DLQI); and Patient Global Impression of Change (PGIG).
Each subject (aged 18-65 years) had one or more screening visits to confirm suitability to enter the study. 98 subjects with moderate to severe atopic dermatitis were randomized 2:1 to receive orally either 30 mg ZPL-389 or placebo once daily for eight weeks (56 days).
Efficacy endpoints for the trial include the following: • change from baseline in NRS for pruritus (worst itch) over 24 hours; • change from baseline in daytime NRS for pruritus (worst itch); • change from baseline in night time NRS for pruritus (worst itch); • change from baseline in NRS for sleep disturbance; • change from baseline in duration of itching; • change from baseline in verbal rating score for pruritus; • change from baseline in EASI score; • change from baseline in SCORAD score; • IGA score; • amount of rescue medication use; and/or • PGIC.

[6] = 30 mg orally once daily vs placebo
[7] = 30 mg orally once daily, 8 weeks

Compound | XRPD 2 ([1]; 1-Butanol) | XRPD 2 ([1]; Dichloromethane) | other results
CCS(=O)(=O)O [Ethanesulfonic acid] | Amorphous | Amorphous | 
O=C(O)[C@H](O)[C@@H](O)[C@H](O)[C@H](O)CO [Gluconic acid] | Amorphous | Amorphous | 
Cc1ccc(S(=O)(=O)O)cc1 [p-Toluenesulfonic acid] | Amorphous | Amorphous | 
O=C(O)CCCC(=O)O [Glutaric acid] | Glut1 | Glut1 | 
O=S(=O)(O)O [Sulfuric acid] | Amorphous | Amorphous | 
CN[C@@H]1CCN(c2cc(NCC3CC3)nc(N)n2)C1.O.O.O=C(O)C(O)C(O)C(=O)O [Example 4, N^4-(cyclopropylmethyl)-6-[(3R)-3-(methylamino)pyrrolidin-1-yl]pyrimidine-2,4-diamine tartrate dihydrate] |  |  | RH at which the dehydration step occurs during desorption ([2]; DVS desorption): below 10 % RH; Water uptake (mass uptake) between 0-20% RH ([2]; DVS sorption): 1.9%; total mass uptake at 20-30% RH ([2]; DVS sorption): 6.9%; weight between 30-90% RH ([2]; DVS): remains stable
CN[C@@H]1CCN(c2cc(NCC3CC3)nc(N)n2)C1.Cl.Cl.O [Example 8, N^4-(cyclopropylmethyl)-6-[(3R)-3-(methylamino)pyrrolidin-1-yl]pyrimidine-2,4-diamine di-hydrochloride hydrate] |  |  | stability of two to one stoichiometric salt [3]: stable
Br [Hydrobromic acid] | Amorphous | Amorphous | 
CC(O)C(=O)O (stereo not drawn) [Lactic acid] | Amorphous | Amorphous | 
CN[C@@H]1CCN(c2cc(NCC3CC3)nc(N)n2)C1 [ZPL-389, N^4-(cyclopropylmethyl)-6-[(3R)-3-(methylamino)pyrrolidin-1-yl]pyrimidine-2,4-diamine] |  |  | absorption ([4]; phase 1 trials): rapidly absorbed; pharmacokinetics (dose proportionality) ([4]; phase 1 trials): dose-proportional; majority of observed adverse events ([4]; single ascending doses 0.01-48 mg, multiple ascending doses 5, 15, 50 mg once daily for 14 days): mild, transient, and non-dose related; tolerability ([4]; single ascending doses 0.01-48 mg, multiple ascending doses 5, 15, 50 mg once daily for 14 days, 62 subjects): safely tolerated; efficacy in mild asthma (mild asthmatics): no efficacy was observed; IGA remission odds ratio [5, 6]: 2.71; IGA response odds ratio [5, 6]: 2.51; Treatment Emergent Adverse Events (TEAE) between ZPL-389 and placebo [5, 7]: no differences; inflammation compared to placebo (EASI, SCORAD, BSA) [5, 7]: clinically and statistically significant decrease; subjects with clear or almost clear skin [5, 7]: 19%; tolerability / safety profile ([5]; 30 mg orally once daily, 8 weeks, comparable to placebo): well tolerated; rescue medication use ([5]; 30 mg orally once daily, 8 weeks, vs placebo): lower; IGA reduced by ([5]; 30 mg orally once daily, week 8, placebo 25%): 36%; SCORAD reduced by ([5]; 30 mg orally once daily, week 8, placebo 26%, p=0.004): 41%; EASI reduced by ([5]; 30 mg orally once daily, week 8, placebo 27%, p=0.01): 50%; BSA (Body Surface Area) affected by inflammation change from baseline ([5]; 30 mg orally once daily, week 8, placebo −12%, p=0.044): −18%; pruritus ([5]; 30 mg orally once daily, statistically significant compared to baseline): markedly reduced
O=C(O)c1ccccc1 [Benzoic acid] | Ben1 + Ben2 plus | Ben1 + Ben2 plus | 
O=C(O)[C@H](O)[C@@H](O)C(=O)O [(+)-L-Tartaric acid] | Amorphous | Amorphous | 
O=C(O)c1ccccc1O [Salicylic acid] | Sal1 plus | Amorphous | 
CC(=O)O [Acetic acid] | Amorphous | Amorphous | 
Cl [Hydrochloric acid] | Amorphous | Amorphous | 
O=C(O)/C=C\C(=O)O [Maleic acid] | Amorphous | Amorphous | 
O=P(O)(O)O [Phosphoric acid] | Pho2 plus | Pho3 | 
O=S(=O)(O)c1ccc2ccccc2c1 [Naphtalene-2-sulfonic acid] | Nap1 + Nap0 | Amorphous | 
O=C(O)c1cc(O)ccc1O [Gentisic acid] | Gen2 | Gen2 | 

Now from value to compound, other results behind:

XRPD 2 ([1]; 1-Butanol) | XRPD 2 ([1]; Dichloromethane) | Compound | other results
Amorphous | Fum0 + Fum3 | O=C(O)/C=C/C(=O)O [Fumaric acid] | 
Oxa3 | Oxa3 | O=C(O)C(=O)O [Oxalic acid] | 
Gltm0 | Amorphous | N[C@@H](CCC(=O)O)C(=O)O [Glutamic acid] | 
Amorphous | Amorphous | O=S(=O)(O)c1ccccc1 [Benzenesulfonic acid] | 
Amorphous | Amorphous | O=C(O)C(O)c1ccccc1 (racemic) [DL-Mandelic acid] | 
Amorphous | Amorphous | O=C1O[C@H]([C@@H](O)CO)C(O)=C1O [L-Ascorbic acid] | 
Amorphous | Amorphous | CS(=O)(=O)O [Methanesulfonic acid] | 
Amorphous | Amorphous | (−)-L-Malic acid | 
ABen1 + ABen0 | ABen1 + ABen0 | CC(=O)Nc1ccc(C(=O)O)cc1 [4-acetamido-Benzoic acid] | 
Amorphous | Amorphous | O=C(O)CNC(=O)c1ccccc1 [Hippuric acid] | 
Amorphous | Amorphous | O=C[C@H](O)[C@@H](O)[C@H](O)[C@H](O)C(=O)O [D-Glucuronic acid] | 
Eds1 + Eds2 | Eds1 | O=S(=O)(O)CCS(=O)(=O)O [Ethane-1,2-disulfonic acid] | 
Ste0 + Ste1 | Ste0 + Ste1 | CCCCCCCCCCCCCCCCCC(=O)O [Stearic acid] | 
Amorphous | Amorphous | O=C(O)CC(O)(CC(=O)O)C(=O)O [Citric acid] | 
Asp0 | Amorphous | N[C@@H](CC(=O)O)C(=O)O [L-Aspartic acid] | 
